Data: patent US20220202739A1, “ENDOCANNABINOID MIMETIC AND ANTI-INFLAMMATORY COMPOUND CONTAINING COMPOSITIONS, METHODS OF PREPARATION AND USES THEREOF” (priority 2019, published 2022)
Like-named read-outs stand apart in the source and are kept apart here.

What was measured:
IL1A = assay: Gene expression custom microarray, human skin fibroblasts (Example 1): IL1A; assay type: cell-based; conditions: 24 hr; for fold induction at 10 µM: Skin fibroblast, read-out: IL1A↓ gene expression, fold increase or decrease vs untreated cells
Description: (§1) Cell cultures: A human skin fibroblast cell culture (or cultures) was obtained through the Coriell Cell Repository from the National Institute on Aging Cell Repository (Camden, N.J.), or Promocell GmbH (Heidelberg, Germany). The initial culture was selected from the following cell lines: AG13066, AG11557, AG11796 or GM03651E. The cell lines were derived from donors as follows:
(§2) Experimental phase: When the appropriate quantity of cells had been grown, they were detached as described above, but at the final step were seeded into each well of one or more 6 well dishes. Each well received 2 ml of the cell suspension so they were seeded equally. The dishes were returned to the incubator until 85-95% confluency was reached.
(§3) It is at this stage that all wells were rinsed in PBS after aspirating the growth media. The compound(s) to be tested were previously mixed into a suitable solvent (e.g., DMSO or ethanol) that can be diluted to the desired concentration of test compound (10 μl) in the culture wells without exceeding maximum solvent concentrations and adversely effecting cell viability, and mixed with basal media. NOTE: Standard maximum levels of solvent are 0.1% for DMSO and 0.5% for ETOH. The concentration of each test compound is found in Tables 1 & 2.
(§4) Every 2 wells on the 6 well plate served as a biological replicate for the purposes of RNA isolation and genetic expression evaluations making each 6 well dish an n=3 for the test compound(s) contained in the media. Negative control plates (no test compound(s) and only basal media) were also generated. The plates were returned to the incubator for 24 hrs.
(§5) At the end of the 24 hr time period, the plates were removed from the incubator, the test media aspirated, and the cells rinsed with PBS. RNA isolation is performed using the BioRad Aurum Total RNA Mini Kit (Hercules, Calif.) per manufacturer's protocol; which is described, in brief, below: • Add 350 μl of lysis buffer to each well. Pipet multiple times to ensure thorough lysis. Add lysed cells to the collection tube. • Add 350 μl of 70% ETOH to the collection tube and mix thoroughly. • Pipet the generated lysate onto the spin column placed in a new 2 ml tube. Centrifuge for 30 sec between 8,000 and 10,000 g. • Place the spin column containing the now bound RNA, in a new 2 ml tube. Add 700 μl of low stringency wash solution to the spin column. Centrifuge for 30 sec between 8,000 and 10,000 g. Discard the flow through and replace spin column. • Add 80 μl of DNase I dilution to the spin column and incubate at room temperature for 15 minutes. • Add 700 μl of high stringency wash solution to the column and centrifuge for 30 sec between 8,000 and 10,000 g. Discard flow through. • Add 700 μl of low stringency wash solution to the column and centrifuge for 60 sec between 8,000 and 10,000 g. Discard flow through. • Centrifuge for 2 minutes to remove residual wash solution. • Transfer spin column to new 1.5 ml collection tube and add 80 μl of elution solution to the column. Allow 1 minute for saturation of the membrane and then centrifuge for 2 minutes to complete the RNA elution. • Quantify the quantity of RNA and store at −20 C° until use (no more than 1 month)
The genes tested were: • Cannabinoid receptor 1 (CB1(CNR1)) • Cannabinoid receptor 2 (CB2 (CNR2)) • Fatty acid amide hydrolase (FAAH) • Monoacylglycerol lipase (MGLL, i.e., MAGL) • Peroxisome proliferator-activated receptor gamma (PPARG) • Nuclear factor kappa-light-chain-enhancer of activated B cells (NFκβ) • Interleukin 1 Alpha (IL1alpha) • Cyclooxygenase 1 (PTGS1, i.e., COX1) • Transient receptor potential cation channel subfamily A member 1 (TRPA1) • Transient receptor potential cation channel subfamily V member 1 (TRPV1) • Transient receptor potential cation channel subfamily M member 8 (TRPM8) • Hemoglobin Subunit Beta (HBB) REFERENCE GENE • Ribosomal Protein L13a (RPL13A) REFERENCE GENE […]

PPARG = assay: Gene expression custom microarray, human skin fibroblasts (Example 1): PPARG; assay type: cell-based; conditions: for fold induction at 10 µM: Skin fibroblast, read-out: PPARG↑ gene expression, fold increase or decrease vs untreated cells
Description: as §1, §2
as §3, with “ETOH.” for “ETOH. The concentration of each test compound is found in Tables 1 & 2.”
as §4, §5
The genes tested were: • Cannabinoid receptor 1 (CB1(CNR1)) • Cannabinoid receptor 2 (CB2 (CNR2)) • Fatty acid amide hydrolase (FAAH) • Monoacylglycerol lipase (MGLL, i.e., MAGL) • Peroxisome proliferator-activated receptor gamma (PPARG) • Nuclear factor kappa-light-chain-enhancer of activated B cells (NFκβ) • Interleukin 1 Alpha (IL1alpha) • Cyclooxygenase 1 (PTGS1, i.e., COX1) • Transient receptor potential cation channel subfamily A member 1 (TRPA1) • Transient receptor potential cation channel subfamily V member 1 (TRPV1) • Transient receptor potential cation channel subfamily M member 8 (TRPM8) • Hemoglobin Subunit Beta (HBB) REFERENCE GENE • Ribosomal Protein L13a (RPL13A) REFERENCE GENE

[1] = human skin fibroblasts, 10 uM, 24 hr

In the case of `C=C(C)[C@@H]1CCC(C)=C[C@H]1c1c(O)cc(CCCCC)cc1O` [CBD, cannabidiol, reference compound], the fold induction at 10 µM (IL1A) is reported as 20.5 and the fold induction at 10 µM (PPARG; Homo sapiens, 24 h) is reported as 8.1.

For `CCCCCCCCCCCCCCCC(=O)NCCO` [N-palmitoylethanolamide], the “IL1A↓ gene expression, fold increase or decrease vs untreated cells” value (IL1A; 10 uM) was −1.2 fold and the “PPARG↑ gene expression, fold increase or decrease vs untreated cells” value (PPARG; [1]) was 2.6 fold.

Work on `CC(C)[C@]12O[C@H]1[C@@H]1O[C@]13[C@]1(O[C@H]1C[C@H]1C4=C(CC[C@@]13C)C(=O)OC4)[C@@H]2O` [Triptolide] yielded a fold induction at 10 µM (IL1A) of 15.5 and a fold induction at 10 µM (PPARG; [1]) of 1.1.
